Legend:
HT-29 cells = experiment: Colony formation assay; format: cell-based, human; details: HT-29, treated every 3 days for 12–14 days
Protocol: The colony formation assay, also known as the clonogenic assay, is a cell biology technique used to evaluate the ability of individual cells to undergo unlimited division and form colonies. This assay is commonly employed in cancer research, radiation biology, and drug screening studies to assess cells' proliferative potential and sensitivity to various treatments or conditions. A clonogenic assay was conducted here to evaluate the inhibitory effect of the free drug and nanoencapsulated therapies on the tumor-initiating capacity or colony formation potential of the colorectal cancer cells. About 500 cells were seeded for both the cell lines HT-29 and HCT116 in each well of a 12-well plate, followed by incubation overnight. The cells were treated with 2c, 2cNP, and Apt-2cNP every 3 days for a total of 12–14 days except for the control groups. After completion of drug incubation, the treated medium was withdrawn, and the cells were washed with PBS. 10% acetic acid (in methanol) was used as a fixation buffer, and colonies were stained with crystal violet solution (0.5% crystal violet in 25% methanol) and washed with PBS three times to remove excess dye. […] After imaging, the crystal violet stained colonies were dissolved in 10% acetic acid solution for 15 min under shaking conditions, and the absorbance of the supernatant was detected using a plate reader at 510 nm.

[1] = Pharmacokinetic evaluation; format: in vivo; details: CRC-bearing mice, intravenous 25 mg/kg, plasma 2c
Protocol: Pharmacokinetic evaluation informs the time course of drug absorption, distribution, metabolism, and elimination (ADME) within the body. It is a crucial aspect of drug development and is vital in understanding how a drug behaves in vivo. 2c, 2cNP, and Apt-2cNP were injected separately into CRC-bearing mice through intravenous injection (dose: 25 mg/kg). Blood samples were withdrawn at 4 h, 8 h, 10 h, 12 h, 24 h, 48 h, 72 h, and 96 h post-injection, and plasma concentrations of 2c for all samples were determined using LC–MS following a previously described method. A plasma concentration vs time curve was generated using GraphPad Prism (version 5.0). Cmax and Tmax were determined directly from the curve. AUC, AUMC, and AUC0–∞ were calculated using the trapezoidal method. t1/2, MRT, and clearance values were calculated using standard formulas.

CRC cancer tissue = experiment: Gene expression by qPCR in CRC tumor tissue; format: in vivo, mice; details: CRC mouse model
Protocol: Gene expression analysis by quantitative real-time polymerase chain reaction (qPCR) is widely used in molecular biology and genetics research. qPCR allows the detection and quantification of specific RNA transcripts, providing insights into the expression levels of genes under various conditions or in different cell types or tissues. The expression of several genes related to apoptosis, autophagy, DNA synthesis, and inflammatory pathways were analyzed after treatment with 2c, 2cNP, and Apt-2cNP to understand the molecular mechanism behind their cytotoxic effects and to determine differences between aptamer-conjugated and unconjugated nanoparticles. Total RNA from CRC cancer tissue before and after treatment was isolated after completion of treatment time using TRIzol, following the manufacturer’s protocol. The RNA was checked for quality by measuring the […] ratio and quantified in a NanoDrop instrument. Then, cDNAs were prepared using RevertAid First Strand cDNA synthesis kit (ThermoFisher) followed by amplified using SYBR Green Master Mix (BioRad) in a thermal cycler (Veriti 96-well, Applied Biosystems, Massachusetts, USA). Relative transcript abundance values obtained from the instrument were plotted in bar diagrams. A total of 12 genes (caspase 3, Bcl-2, Bcl-XL, Bax, Atg5, LC3B, Beclin, p62, NF-κB, APC, p53, and TOP2) were analyzed for each sample. Sequences of the primers used (both forward primer and reverse primer) for each gene are in Supplementary Table T2.

[2] = system: CRC tumor microenvironment; experiment: Cytokines (ELISA) and immune cells (flow cytometry) in CRC tumor microenvironment; format: in vivo; details: CRC mice, 24 h and 48 h
Protocol: Colorectal tissues were isolated from the CRC-bearing mice before and after treatment with 2c, 2cNP, and Apt-2cNP, followed by washing with ice-cold PBS. Colons were then minced into small pieces and agitated with predigestion buffer (HBSS, 10 mM HEPES, 5 mM EDTA, 1 mM DTT, 5% FBS) for 20 min in a 37 °C incubator-shaker. The single cells suspension from the colonic tissues was prepared using a 100 µm cell strainer. The remaining tissue pieces collected from the cell strainer were then cut into finer fragments and treated with digestion solution (HBSS, 10 mM EDTA, 0.5 mg/ml collagenase D, 3 mg/ml dispase II and 5% FBS) in a 37 °C incubator-shaker for 30 min. The dissociated cells from the tissues were collected again through a 100 µm cell strainer. All the single-cell suspensions were pooled together and centrifuged using Percoll gradient. The lymphocytes were suspended in 4 ml of 40% Percoll solution and layered over 12 ml of 80% Percoll solution. Centrifugation was then carried out without a break at 1000 g for 20 min. The T cells were collected from the liquid interphase and resuspended in PBS or RPMI 1640 medium for further experiments.
To analyze cytokine levels (TNFα, IFNγ, and IL-10) and all other ELISA assays, sandwich ELISA kits were used. […] The reading was monitored using a multi-plate reader and then compared with the standard curve for actual measurement of the cytokine level. […]

DMH-induced CRC = experiment: In vivo antitumor efficacy, Ki67 immunohistochemistry of colon; parameters: species or system Swiss albino mice; dose or concentration left out as unconfirmed; details: CRC mice
Protocol: Sprague–Dawley (SD) rats (body weight = 140–160 g) and Swiss albino mice (body weight = 20–25 g) of either sex (male:female = 1:1) were selected for the chemical-induced colorectal carcinoma model. The study plan was prepared as per the guidelines of the Committee for the Purpose of Control and Supervision of Experiments on Animals (CPCSEA), India (JU-AEC; Registration Number: 1805/GO/Re/S/15/CPCSEA) and was sanctioned by the Animal Ethics Committee (AEC), Jadavpur University, (Protocol approval. no.: AEC/PHARM/1701/3/2018). The animals were procured from the National Institute of Nutrition (Hyderabad, India) and were habituated in housing conditions of 25 °C ± 1 °C temperature, 55% ± 5% relative humidity, and normal day/night photoperiod for at least 2 weeks before conducting any experiment. For the development of CRC-bearing mice, Dimethylhydrazine (DMH) was injected intraperitoneally at a dose of 20 mg/kg body weight once a week for 12 weeks. In contrast, for generating CRC-bearing rats, DMH was administered intraperitoneally at a dose of 25 mg/kg body weight once a week for 9 weeks, as described previously.
Evaluating in vivo antitumor efficacy with histopathological observations is essential to preclinical studies in cancer research and drug development. […] Ki67-positive and -negative cells were counted in microscopic images taken after staining using QuPath-0.3.2 software.

With `C=C(C)[C@@H]1CC[C@]2(C(=O)O)CC[C@]3(C)[C@H](CC[C@@H]4[C@@]5(C)CC[C@H](OC(=O)Cn6cc(CO)nn6)C(C)(C)[C@@H]5CC[C@]43C)[C@@H]12` [2c, (3S)-3-[2-(4-hydroxymethyl-1H-1,2,3-triazol-1-yl)acetyloxy]-lup-20(29)-en-28-oic acid] the “Inhibition of colony formation” value (HT-29 cells) was “moderate prohibition in colony formation”, the “AUC 0-∞” value [1] was 380 ± 44 ng·h/mL and the AUC last [1] was 376 ± 42 ng·h/mL. The AUMC [1] was 8381 ± 1644 ng.h2/ml, the Clearance [1] was 333 ± 30 mL/h and the Cmax [1] was 23.5 ± 0.55 ng/mL. The MRT [1] was 22.3 ± 1.72 h, the Tmax [1] was 1 min and the Vd [1] was 2.88 ± 0.15 L. The t1/2 [1] was 6 ± 0.5 h, the “Topoisomerase-II RNA level” value (CRC cancer tissue; 24 h and 48 h after treatment) was “time-dependent decrease” and the “RNA expression of anti-apoptotic genes (Bcl-2 and Bcl-XL)” value (CRC cancer tissue; 24 h and 48 h treatment) was “decrease”. The “RNA expression of pro-apoptotic genes (caspase 3 and Bax)” value (CRC cancer tissue; 24 h and 48 h treatment) was “time-dependent increase”, the “RNA expression of autophagy-related genes (Atg5, LC3B, Beclin)” value (CRC cancer tissue; 24 h or 48 h after treatment) was “time-dependent increase” and the p62 expression (CRC cancer tissue; 24 h or 48 h after treatment) was “decrease”. For the same compound, the “Percentages of CD4 and CD8 T cells in TME” value [2] was “did not change” and the “Ki67-positive cells in colon” value (DMH-induced CRC) was 58.88 ± 1.2%.
